From patent US10961236B2, “(S)-2-(1-cyclopropylethyl)-5-(4-methyl-2-((6-(2-oxopyrrolidin-1-yl)pyridin-2-yl)amino) thiazol-5-yl)-7-(methylsulfonyl)isoindolin-1-one as a phosphatidylinositol 3-kinase inhibitor” (AstraZeneca AB, priority 2016, dated 2021)

Tests used:
Type in all cases: biochemical
[1] = target: recombinant human PI3Kδ (6-His(p110-p85α)) (Homo sapiens (Human), UniProt O00329); experiment: Enzymatic activity assay for recombinant human PI3Kδ (ADP-Glo); conditions: 0.6 nM PI3Kδ, 20 μM ATP, 80 μM DiC8-PIP2, ADP-Glo
recombinant human PI3Kδ (6-His(p110-p85α)), sequence (O00329 whole entry): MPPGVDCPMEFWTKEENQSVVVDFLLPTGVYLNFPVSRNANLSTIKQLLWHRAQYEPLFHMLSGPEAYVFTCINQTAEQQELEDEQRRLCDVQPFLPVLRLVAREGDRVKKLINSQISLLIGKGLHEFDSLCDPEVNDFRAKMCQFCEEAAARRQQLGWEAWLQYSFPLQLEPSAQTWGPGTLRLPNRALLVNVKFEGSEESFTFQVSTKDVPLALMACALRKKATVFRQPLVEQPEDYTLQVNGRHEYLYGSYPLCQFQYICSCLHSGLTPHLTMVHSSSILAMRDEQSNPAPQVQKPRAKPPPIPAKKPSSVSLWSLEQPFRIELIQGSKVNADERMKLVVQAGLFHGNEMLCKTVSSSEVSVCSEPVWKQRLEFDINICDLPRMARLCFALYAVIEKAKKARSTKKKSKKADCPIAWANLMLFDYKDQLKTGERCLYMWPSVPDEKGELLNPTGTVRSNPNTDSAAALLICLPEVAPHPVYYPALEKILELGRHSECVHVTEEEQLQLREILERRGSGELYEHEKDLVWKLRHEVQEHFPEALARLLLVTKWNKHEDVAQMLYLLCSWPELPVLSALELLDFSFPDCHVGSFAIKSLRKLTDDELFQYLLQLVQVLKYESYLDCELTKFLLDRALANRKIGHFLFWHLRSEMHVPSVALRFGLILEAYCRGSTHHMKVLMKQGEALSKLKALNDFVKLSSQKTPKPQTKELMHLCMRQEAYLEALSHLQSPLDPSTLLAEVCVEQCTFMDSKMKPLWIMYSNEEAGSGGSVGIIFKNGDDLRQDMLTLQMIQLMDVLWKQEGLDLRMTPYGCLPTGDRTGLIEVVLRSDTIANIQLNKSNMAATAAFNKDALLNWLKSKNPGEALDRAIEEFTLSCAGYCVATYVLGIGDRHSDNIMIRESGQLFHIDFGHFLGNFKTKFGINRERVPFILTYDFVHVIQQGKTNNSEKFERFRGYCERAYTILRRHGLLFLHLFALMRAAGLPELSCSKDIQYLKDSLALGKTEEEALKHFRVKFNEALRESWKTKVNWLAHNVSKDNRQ
recombinant human PI3Kδ (6-His(p110-p85α)), sequence (P27986 whole entry partner): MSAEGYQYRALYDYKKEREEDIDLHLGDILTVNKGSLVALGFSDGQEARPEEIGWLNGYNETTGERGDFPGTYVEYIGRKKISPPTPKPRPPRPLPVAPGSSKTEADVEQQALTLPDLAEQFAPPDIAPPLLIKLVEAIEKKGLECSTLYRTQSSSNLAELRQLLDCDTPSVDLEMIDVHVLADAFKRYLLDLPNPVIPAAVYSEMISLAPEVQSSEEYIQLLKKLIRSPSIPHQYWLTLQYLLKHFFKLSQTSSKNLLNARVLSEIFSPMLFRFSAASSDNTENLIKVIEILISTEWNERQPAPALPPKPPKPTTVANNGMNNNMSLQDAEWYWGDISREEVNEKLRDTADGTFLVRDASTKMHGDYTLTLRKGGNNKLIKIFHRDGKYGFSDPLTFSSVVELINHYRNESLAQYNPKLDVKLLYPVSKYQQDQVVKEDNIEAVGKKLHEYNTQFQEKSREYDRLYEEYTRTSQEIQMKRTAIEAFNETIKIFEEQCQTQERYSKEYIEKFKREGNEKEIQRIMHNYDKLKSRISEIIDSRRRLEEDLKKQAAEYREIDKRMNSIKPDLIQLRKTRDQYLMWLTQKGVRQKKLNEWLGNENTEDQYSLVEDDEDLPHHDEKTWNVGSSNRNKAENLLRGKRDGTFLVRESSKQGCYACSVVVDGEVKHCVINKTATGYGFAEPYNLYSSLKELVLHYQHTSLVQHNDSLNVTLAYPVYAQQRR
Procedure, shortened: (§1)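 ADP-Glo luminescence after DiC8-PIP2 (80 μM) phosphorylation with 20 μM ATP in 50 mM Tris pH 7.4, 3 mM MgCl2, 2.1 mM DTT, 0.05% CHAPS at room temperature. Enzyme 1.2 nM PI3Kγ or 0.6 nM PI3Kδ; inhibitors pre-incubated 15 min, then 60 min reaction.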

[2] = target: recombinant human PI3Kα (6-His(p110-p85α)) (Homo sapiens (Human), UniProt P42336); experiment: Enzymatic activity assay for recombinant human PI3Kα (ADP-Glo); conditions: 1.2 nM PI3Kα, 20 μM ATP, 80 μM DiC8-PIP2, ADP-Glo
recombinant human PI3Kα (6-His(p110-p85α)), sequence (P42336 whole entry): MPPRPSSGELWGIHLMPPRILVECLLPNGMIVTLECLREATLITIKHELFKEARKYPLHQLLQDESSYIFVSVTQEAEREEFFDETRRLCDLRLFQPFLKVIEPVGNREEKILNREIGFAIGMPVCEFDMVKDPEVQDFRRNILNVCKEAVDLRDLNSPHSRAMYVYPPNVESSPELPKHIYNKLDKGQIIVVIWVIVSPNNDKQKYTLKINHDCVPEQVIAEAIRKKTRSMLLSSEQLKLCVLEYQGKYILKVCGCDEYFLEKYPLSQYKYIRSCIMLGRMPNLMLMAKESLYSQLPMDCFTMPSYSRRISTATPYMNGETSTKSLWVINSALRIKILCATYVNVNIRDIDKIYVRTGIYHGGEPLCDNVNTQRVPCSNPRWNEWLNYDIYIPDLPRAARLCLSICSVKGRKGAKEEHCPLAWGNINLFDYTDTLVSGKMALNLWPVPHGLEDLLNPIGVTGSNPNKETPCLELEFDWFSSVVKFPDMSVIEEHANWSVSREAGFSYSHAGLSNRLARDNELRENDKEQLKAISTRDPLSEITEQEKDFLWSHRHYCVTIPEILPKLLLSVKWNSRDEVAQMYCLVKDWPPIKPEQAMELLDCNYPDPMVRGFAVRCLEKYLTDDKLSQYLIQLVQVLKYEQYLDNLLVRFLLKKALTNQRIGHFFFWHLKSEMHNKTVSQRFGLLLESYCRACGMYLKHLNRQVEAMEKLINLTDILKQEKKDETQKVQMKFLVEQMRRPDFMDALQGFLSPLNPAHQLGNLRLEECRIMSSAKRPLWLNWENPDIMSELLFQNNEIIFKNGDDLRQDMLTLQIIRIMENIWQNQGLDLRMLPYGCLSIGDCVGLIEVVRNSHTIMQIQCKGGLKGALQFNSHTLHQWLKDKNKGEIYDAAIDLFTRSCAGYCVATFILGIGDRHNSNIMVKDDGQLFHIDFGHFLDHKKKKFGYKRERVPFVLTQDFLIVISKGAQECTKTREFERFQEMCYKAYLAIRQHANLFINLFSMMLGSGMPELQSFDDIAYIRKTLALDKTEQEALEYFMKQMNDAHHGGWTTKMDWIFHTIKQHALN
recombinant human PI3Kα (6-His(p110-p85α)), sequence (P27986 whole entry partner): as the sequence (P27986 whole entry partner) above
Procedure, shortened: (§2)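 ADP-Glo luminescence after DiC8-PIP2 phosphorylation at RT: 80 μM lipid substrate, 20 μM ATP, 1.2 nM enzyme (0.6 nM for δ) in Tris pH 7.4 with MgCl2, DTT, CHAPS. Compounds pre-incubated 15 min with enzyme, then 60 min reaction; DMSO ≤1%.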

[3] = target: recombinant human PI3Kβ (6-His(p110-p85α)) (Homo sapiens (Human), UniProt P42338); experiment: Enzymatic activity assay for recombinant human PI3Kβ (ADP-Glo); conditions: 1.2 nM PI3Kβ, 20 μM ATP, 80 μM DiC8-PIP2, ADP-Glo
recombinant human PI3Kβ (6-His(p110-p85α)), sequence (P42338 whole entry): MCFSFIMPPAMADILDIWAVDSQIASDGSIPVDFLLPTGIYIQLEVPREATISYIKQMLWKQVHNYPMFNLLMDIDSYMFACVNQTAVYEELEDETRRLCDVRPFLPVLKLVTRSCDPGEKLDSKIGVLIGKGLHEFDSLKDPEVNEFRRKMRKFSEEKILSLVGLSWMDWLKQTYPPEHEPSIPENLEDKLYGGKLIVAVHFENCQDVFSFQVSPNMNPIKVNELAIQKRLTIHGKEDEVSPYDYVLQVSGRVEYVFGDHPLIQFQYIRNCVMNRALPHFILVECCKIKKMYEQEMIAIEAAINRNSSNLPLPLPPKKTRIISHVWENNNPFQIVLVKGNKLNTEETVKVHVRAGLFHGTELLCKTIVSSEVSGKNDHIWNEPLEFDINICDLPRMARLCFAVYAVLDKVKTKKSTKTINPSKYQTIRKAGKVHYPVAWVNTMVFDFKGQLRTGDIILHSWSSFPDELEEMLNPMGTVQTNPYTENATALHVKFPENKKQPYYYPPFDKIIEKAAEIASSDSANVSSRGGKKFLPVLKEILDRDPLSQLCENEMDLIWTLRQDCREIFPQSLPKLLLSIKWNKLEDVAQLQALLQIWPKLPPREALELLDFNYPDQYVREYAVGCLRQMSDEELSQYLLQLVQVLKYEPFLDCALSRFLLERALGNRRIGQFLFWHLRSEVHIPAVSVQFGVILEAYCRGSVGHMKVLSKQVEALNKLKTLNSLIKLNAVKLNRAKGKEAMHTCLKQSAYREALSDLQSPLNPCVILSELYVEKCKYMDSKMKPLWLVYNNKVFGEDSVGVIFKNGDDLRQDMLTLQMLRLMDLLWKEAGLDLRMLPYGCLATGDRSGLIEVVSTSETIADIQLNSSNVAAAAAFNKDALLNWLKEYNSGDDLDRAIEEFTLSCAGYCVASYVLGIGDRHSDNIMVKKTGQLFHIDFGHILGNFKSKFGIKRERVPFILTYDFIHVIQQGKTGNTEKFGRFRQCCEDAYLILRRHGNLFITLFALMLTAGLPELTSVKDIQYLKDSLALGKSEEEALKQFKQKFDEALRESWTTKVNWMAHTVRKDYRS
recombinant human PI3Kβ (6-His(p110-p85α)), sequence (P27986 whole entry partner): as the sequence (P27986 whole entry partner) above
Procedure, shortened: as §2

[4] = target: recombinant human PI3Kγ ((aa144-1102)-6His) (Homo sapiens (Human), UniProt P48736); experiment: Enzymatic activity assay for recombinant human PI3Kγ (ADP-Glo); conditions: 1.2 nM PI3Kγ, 20 μM ATP, 80 μM DiC8-PIP2, ADP-Glo
recombinant human PI3Kγ ((aa144-1102)-6His), sequence (P48736 144-1102): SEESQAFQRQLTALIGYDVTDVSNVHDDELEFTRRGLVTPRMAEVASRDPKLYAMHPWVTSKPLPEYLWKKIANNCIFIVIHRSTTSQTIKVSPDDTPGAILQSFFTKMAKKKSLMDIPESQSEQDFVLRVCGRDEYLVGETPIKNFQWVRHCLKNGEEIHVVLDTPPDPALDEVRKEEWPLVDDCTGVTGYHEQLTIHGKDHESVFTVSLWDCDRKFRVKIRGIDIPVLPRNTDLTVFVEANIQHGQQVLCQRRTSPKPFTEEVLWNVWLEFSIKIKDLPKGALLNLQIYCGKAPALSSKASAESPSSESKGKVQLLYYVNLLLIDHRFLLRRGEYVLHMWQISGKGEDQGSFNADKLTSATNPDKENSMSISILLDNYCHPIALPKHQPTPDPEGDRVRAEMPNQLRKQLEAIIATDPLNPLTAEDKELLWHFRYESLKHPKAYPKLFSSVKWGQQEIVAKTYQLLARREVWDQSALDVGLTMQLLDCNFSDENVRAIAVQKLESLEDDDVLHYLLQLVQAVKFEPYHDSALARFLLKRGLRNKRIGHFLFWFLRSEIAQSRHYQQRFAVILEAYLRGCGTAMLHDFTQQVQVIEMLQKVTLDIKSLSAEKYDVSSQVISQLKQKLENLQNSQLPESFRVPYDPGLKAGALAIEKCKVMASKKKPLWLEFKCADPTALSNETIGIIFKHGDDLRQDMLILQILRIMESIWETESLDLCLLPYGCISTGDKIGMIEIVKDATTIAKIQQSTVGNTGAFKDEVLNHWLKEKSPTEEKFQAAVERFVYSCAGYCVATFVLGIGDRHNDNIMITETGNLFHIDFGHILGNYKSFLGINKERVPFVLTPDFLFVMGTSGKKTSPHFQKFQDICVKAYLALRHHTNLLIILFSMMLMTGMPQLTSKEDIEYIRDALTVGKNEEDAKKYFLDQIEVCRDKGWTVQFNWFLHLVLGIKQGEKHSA
Procedure, shortened: as §1

IC50 [1] [µM]	IC50 [2] [µM]	IC50 [3] [µM]	IC50 [4] [µM]	SMILES
0.0089	0.485	10.4	0.0014	CNS(=O)(=O)c1cc(-c2sc(Nc3cccc(N4CCOCC4=O)n3)nc2C)cc2c1C(=O)N([C@@H](C)C(C)(C)C)C2 [Example 39, 2-[(2S)-3,3-Dimethylbutan-2-yl]-N-methyl-6-(4-methyl-2-{[6-(3-oxomorpholin-4-yl)pyridin-2-yl]amino}-1,3-thiazol-5-yl)-3-oxo-2,3-dihydro-1H-isoindole-4-sulfonamide]
0.0017	0.104	0.729	0.0016	Cc1nc(Nc2cccc(N3CCNCC3=O)n2)sc1-c1cc2c(c(S(C)(=O)=O)c1)C(=O)N([C@@H](C)C1CC1)C2 [Example 40, 2-[(1S)-1-Cyclopropylethyl]-5-(4-methyl-2-{[6-(2-oxopiperazin-1-yl)pyridin-2-yl]amino}-1,3-thiazol-5-yl)-7-(methylsulfonyl)-2,3-dihydro-1H-isoindol-1-one]
0.0009	0.072	0.298	0.0013	CNS(=O)(=O)c1cc(-c2sc(Nc3cccc(N4CCNCC4=O)n3)nc2C)cc2c1C(=O)N([C@@H](C)C1CC1)C2 [Example 41, 2-[(1S)-1-Cyclopropylethyl]-N-methyl-6-(4-methyl-2-{[6-(2-oxopiperazin-1-yl)pyridin-2-yl]amino}-1,3-thiazol-5-yl)-3-oxo-2,3-dihydro-1H-isoindole-4-sulfonamide]
0.0008	0.069	0.286	0.001	CNS(=O)(=O)c1cc(-c2sc(Nc3cccc(N4C[C@H](C)NCC4=O)n3)nc2C)cc2c1C(=O)N([C@@H](C)C1CC1)C2 [Example 42, 2-[(1S)-1-Cyclopropylethyl]-N-methyl-6-[4-methyl-2-({6-[(5S)-5-methyl-2-oxopiperazin-1-yl]pyridin-2-yl}amino)-1,3-thiazol-5-yl]-3-oxo-2,3-dihydro-1H-isoindole-4-sulfonamide]
0.001	0.04	0.284	0.001	CNS(=O)(=O)c1cc(-c2sc(Nc3cccc(N4CCN[C@H](C)C4=O)n3)nc2C)cc2c1C(=O)N([C@@H](C)C1CC1)C2 [Example 43, 2-[(1S)-1-Cyclopropylethyl]-N-methyl-6-[4-methyl-2-({6-[(3R)-3-methyl-2-oxopiperazin-1-yl]pyridin-2-yl}amino)-1,3-thiazol-5-yl]-3-oxo-2,3-dihydro-1H-isoindole-4-sulfonamide]
0.0015	0.072	0.518	0.0012	CNS(=O)(=O)c1cc(-c2sc(Nc3cccc(N4CCN[C@@H](C)C4=O)n3)nc2C)cc2c1C(=O)N([C@@H](C)C1CC1)C2 [Example 44, 2-[(1S)-1-Cyclopropylethyl]-N-methyl-6-[4-methyl-2-({6-[(3S)-3-methyl-2-oxopiperazin-1-yl]pyridin-2-yl}amino)-1,3-thiazol-5-yl]-3-oxo-2,3-dihydro-1H-isoindole-4-sulfonamide]
0.001	0.033	0.257	0.0008	CNS(=O)(=O)c1cc(-c2sc(Nc3cccc(N4C[C@@H](C)NCC4=O)n3)nc2C)cc2c1C(=O)N([C@@H](C)C1CC1)C2 [Example 45, 2-[(1S)-1-Cyclopropylethyl]-N-methyl-6-[4-methyl-2-({6-[(5R)-5-methyl-2-oxopiperazin-1-yl]pyridin-2-yl}amino)-1,3-thiazol-5-yl]-3-oxo-2,3-dihydro-1H-isoindole-4-sulfonamide]
0.0008	0.024	0.123	0.001	CNS(=O)(=O)c1cc(-c2sc(Nc3cccc(N4C(=O)CNC[C@H]4C)n3)nc2C)cc2c1C(=O)N([C@@H](C)C1CC1)C2 [Example 46, 2-[(1S)-1-Cyclopropylethyl]-N-methyl-6-[4-methyl-2-({6-[(2R)-2-methyl-6-oxopiperazin-1-yl]pyridin-2-yl}amino)-1,3-thiazol-5-yl]-3-oxo-2,3-dihydro-1H-isoindole-4-sulfonamide]
0.0044	0.097	0.824	0.0013	CNS(=O)(=O)c1cc(-c2sc(Nc3cccc(N4CCNC(C)(C)C4=O)n3)nc2C)cc2c1C(=O)N([C@@H](C)C1CC1)C2 [Example 47, 2-[(1S)-1-Cyclopropylethyl]-6-(2-{[6-(3,3-dimethyl-2-oxopiperazin-1-yl)pyridin-2-yl]amino}-4-methyl-1,3-thiazol-5-yl)-N-methyl-3-oxo-2,3-dihydro-1H-isoindole-4-sulfonamide]
0.0007	0.019	0.199	0.0015	CNS(=O)(=O)c1cc(-c2sc(Nc3cccc(N4CC(C)(C)NCC4=O)n3)nc2C)cc2c1C(=O)N([C@@H](C)C1CC1)C2 [Example 48, 2-[(1S)-1-Cyclopropylethyl]-6-(2-{[6-(5,5-dimethyl-2-oxopiperazin-1-yl)pyridin-2-yl]amino}-4-methyl-1,3-thiazol-5-yl)-N-methyl-3-oxo-2,3-dihydro-1H-isoindole-4-sulfonamide]
0.0026	0.087	0.8	0.0019	CNS(=O)(=O)c1cc(-c2sc(Nc3cccc(N4C(=O)CNC[C@@H]4C)n3)nc2C)cc2c1C(=O)N([C@@H](C)C1CC1)C2 [Example 49, 2-[(1S)-1-Cyclopropylethyl]-N-methyl-6-[4-methyl-2-({6-[(2S)-2-methyl-6-oxopiperazin-1-yl]pyridin-2-yl}amino)-1,3-thiazol-5-yl]-3-oxo-2,3-dihydro-1H-isoindole-4-sulfonamide]
0.0008	0.054	0.271	0.0014	CCNS(=O)(=O)c1cc(-c2sc(Nc3cccc(N4CCNCC4=O)n3)nc2C)cc2c1C(=O)N([C@@H](C)C1CC1)C2 [Example 50, 2-[(1S)-1-Cyclopropylethyl]-N-ethyl-6-(4-methyl-2-{[6-(2-oxopiperazin-1-yl)pyridin-2-yl]amino}-1,3-thiazol-5-yl)-3-oxo-2,3-dihydro-1H-isoindole-4-sulfonamide]
0.0011	0.134	0.415	0.0015	Cc1nc(Nc2cccc(N3CCNCC3=O)n2)sc1-c1cc2c(c(S(=O)(=O)NC(C)C)c1)C(=O)N([C@@H](C)C1CC1)C2 [Example 51, 2-[(1S)-1-Cyclopropylethyl]-6-(4-methyl-2-{[6-(2-oxopiperazin-1-yl)pyridin-2-yl]amino}-1,3-thiazol-5-yl)-3-oxo-N-(propan-2-yl)-2,3-dihydro-1H-isoindole-4-sulfonamide]
0.0007	0.064	0.264	0.0014	CNS(=O)(=O)c1cc(-c2sc(Nc3cccc(N4CCNCCC4=O)n3)nc2C)cc2c1C(=O)N([C@@H](C)C1CC1)C2 [Example 53, 2-[(1S)-1-Cyclopropylethyl]-N-methyl-6-(4-methyl-2-{[6-(7-oxo-1,4-diazepan-1-yl)pyridin-2-yl]amino}-1,3-thiazol-5-yl)-3-oxo-2,3-dihydro-1H-isoindole-4-sulfonamide]
